# Data from patent US12214092B2, “Systems and methods for treating biological fluids” (Cerus Corporation, priority 2017, dated 2025).
# Legend:
# platelets = experiment: Platelet quality, platelets in 100% plasma: 75 μM amotosalen + 340 nm (~6.4 or ~7.2 J/cm^2) or 150 μM + INT-100 (~3.6 J/cm^2, with CAD); assay type: cell-based
# E. coli = experiment: Amotosalen and two sequential UV light doses (UVC + UVA) treatment of E. coli in plasma, colony forming unit assay; assay type: cell-based; details: 15 μM amotosalen, titer pre-UV 6.57; for Titer Post-Second: ~3 J/cm^2 each
# Description: Additionally, any two or more wavelengths of narrow bandwidth light are evaluated in combination, such as for example, photochemical treatment of a biological fluid using amotosalen and ultraviolet light of a first peak wavelength and ultraviolet light of a second peak wavelength, sequentially or concurrently. More specifically, in one example pathogen inactivation of E. coli (Gram negative) and S. epidermidis (Gram positive) bacteria was evaluated using amotosalen and the device with LEDs of wavelengths described in Example 8. […] The spiked plasma units were divided into control (no amotosalen+UV light) and treatment (with amotosalen) conditions, with amotosalen used at 15 μM concentration. The units were aliquoted into six-well plates (5 mL/well) for illumination. Pre-illumination samples were taken and control bacterial titers determined using standard colony forming unit assay. […] Data for pre-illumination titers, post-first illumination titer, post-second illumination titer, and post-treatment (after second illumination) residual amotosalen (S-59) are shown in the following Tables 40-41.
# [1] = Amotosalen concentration pre- and post-UV in platelets (plasma or PAS/plasma), 340 nm ~7.2 J/cm^2, HPLC
# Description: A study was performed to evaluate the photoconversion of amotosalen in platelets in 10000 plasma, as well as function of the platelets over 7 days (Day 3, Day 7) following photochemical treatment using the 340 nm device of the present disclosure. Multiple donor platelet units in 10000 plasma (5 units, ˜278-391 mL) were pooled and split into 5 units of ˜285 mL each, to be used as an untreated control, or treated with amotosalen at different concentrations, with ultraviolet A illumination using the 340 nm device. Amotosalen was added to a concentration of 30, 60, 90 or 110 μM, then pre-illumination (pre-UV) samples were removed for analysis, and the remainder of the units subjected to illumination at ˜7.2 J/cm^2. Post-illumination (Post-UV) samples were then removed for post-treatment analysis.
compound,measurement,setting,value
"Cc1oc2c(C)c3oc(=O)cc(C)c3cc2c1COCCN [S-59, 3-(2-aminoethoxymethyl)-2,5,9-trimethylfuro[3,2-g]chromen-7-one]",pCO2,"platelets; 340/~7.2, Pre-UVA",54.43 mmHg
same,pH @ 22° C.,"platelets; 340/~7.2, Pre-UVA",7.31
same,pH @ 37° C.,"platelets; 340/~7.2, Pre-UVA",7.08
same,pO2,"platelets; 340/~7.2, Pre-UVA",31.77 mmHg
same,Extent of Shape Change (ESC),"platelets; INT-100, D5",25.20
same,Hypotonic Shock Response (HSR),"platelets; INT-100, D5",55.10
same,Morphology (Kunicki score),"platelets; INT-100, D5",265.67
same,P-selectin (CD62P),"platelets; INT-100, D5",39.07
same,pCO2,"platelets; INT-100, D5",31.83 mmHg
same,pH @ 22° C.,"platelets; INT-100, D5",7.16
same,pH @ 37° C.,"platelets; INT-100, D5",6.93
same,pO2,"platelets; INT-100, D5",69.77 mmHg
same,Extent of Shape Change (ESC),"platelets; INT-100, D7",19.82
same,Hypotonic Shock Response (HSR),"platelets; INT-100, D7",46.00
same,Morphology (Kunicki score),"platelets; INT-100, D7",274.67
same,P-selectin (CD62P),"platelets; INT-100, D7",58.77
same,pCO2,"platelets; INT-100, D7",28.47 mmHg
same,pH @ 22° C.,"platelets; INT-100, D7",6.96
same,pH @ 37° C.,"platelets; INT-100, D7",6.74
same,pO2,"platelets; INT-100, D7",70.37 mmHg
same,pCO2,"platelets; INT-100, Post-UVA",54.60 mmHg
same,pH @ 22° C.,"platelets; INT-100, Post-UVA",7.17
same,pH @ 37° C.,"platelets; INT-100, Post-UVA",6.94
same,pO2,"platelets; INT-100, Post-UVA",62.87 mmHg
same,Extent of Shape Change (ESC),"platelets; INT-100, Pre-UVA",23.50
same,Hypotonic Shock Response (HSR),"platelets; INT-100, Pre-UVA",49.67
same,Morphology (Kunicki score),"platelets; INT-100, Pre-UVA",279.33
same,P-selectin (CD62P),"platelets; INT-100, Pre-UVA",27.77
same,pCO2,"platelets; INT-100, Pre-UVA",54.43 mmHg
same,pH @ 22° C.,"platelets; INT-100, Pre-UVA",7.31
same,pH @ 37° C.,"platelets; INT-100, Pre-UVA",7.08
same,pO2,"platelets; INT-100, Pre-UVA",31.77 mmHg
same,Titer Post-Second,E. coli; UV 1 265 nm then UV 2 325 nm,<−0.11
same,Titer Post-Second,E. coli; UV 1 265 nm then UV 2 340 nm,<−0.11
same,Titer Post-Second,E. coli; UV 1 265 nm then UV 2 365 nm,<−0.11
same,Titer Post-First,E. coli; UV 1 265 nm ~3 J/cm^2 (then 325 nm),3.58
same,Titer Post-First,E. coli; UV 1 265 nm ~3 J/cm^2 (then 340 nm),3.86
same,Titer Post-First,E. coli; UV 1 265 nm ~3 J/cm^2 (then 365 nm),2.95
same,Titer Post-Second,E. coli; UV 1 280 nm then UV 2 325 nm,<−0.11
same,Titer Post-Second,E. coli; UV 1 280 nm then UV 2 340 nm,<−0.11
same,Titer Post-Second,E. coli; UV 1 280 nm then UV 2 365 nm,<−0.11
same,Titer Post-First,E. coli; UV 1 280 nm ~3 J/cm^2 (then 325 nm),3.66
same,Titer Post-First,E. coli; UV 1 280 nm ~3 J/cm^2 (then 340 nm),4.15
same,Titer Post-First,E. coli; UV 1 280 nm ~3 J/cm^2 (then 365 nm),4.11
same,Titer Post-Second,E. coli; UV 1 325 nm then UV 2 265 nm,<−0.11
same,Titer Post-Second,E. coli; UV 1 325 nm then UV 2 280 nm,<−0.11
same,Titer Post-First,E. coli; UV 1 325 nm ~3 J/cm^2 (then 265 nm),<−0.11
same,Titer Post-First,E. coli; UV 1 325 nm ~3 J/cm^2 (then 280 nm),<−0.11
same,Titer Post-Second,E. coli; UV 1 340 nm then UV 2 265 nm,<−0.11
same,Titer Post-Second,E. coli; UV 1 340 nm then UV 2 280 nm,<−0.11
same,Titer Post-First,E. coli; UV 1 340 nm ~3 J/cm^2 (then 265 nm),<−0.11
same,Titer Post-First,E. coli; UV 1 340 nm ~3 J/cm^2 (then 280 nm),<−0.11
same,Titer Post-Second,E. coli; UV 1 365 nm then UV 2 265 nm,<−0.11
same,Titer Post-Second,E. coli; UV 1 365 nm then UV 2 280 nm,<−0.11
same,Titer Post-First,E. coli; UV 1 365 nm ~3 J/cm^2 (then 265 nm),<−0.11
same,Titer Post-First,E. coli; UV 1 365 nm ~3 J/cm^2 (then 280 nm),<−0.11
same,Amotosalen concentration,"[1]; 30 μM, PAS/Plasma, Post-UV",0.3 µM
same,Amotosalen concentration,"[1]; 30 μM, PAS/Plasma, Pre-UV",30.5 µM
same,Amotosalen concentration,"[1]; 30 μM, Plasma, Post-UV",1.1 µM
same,Amotosalen concentration,"[1]; 30 μM, Plasma, Pre-UV",32.7 µM
same,Amotosalen concentration,"[1]; 60 μM, PAS/Plasma, Post-UV",0.7 µM
same,Amotosalen concentration,"[1]; 60 μM, PAS/Plasma, Pre-UV",61.2 µM
same,Amotosalen concentration,"[1]; 60 μM, Plasma, Post-UV",2.3 µM
same,Amotosalen concentration,"[1]; 60 μM, Plasma, Pre-UV",62.0 µM
same,Amotosalen concentration,"[1]; 90 μM, PAS/Plasma, Post-UV",1.0 µM
same,Amotosalen concentration,"[1]; 90 μM, PAS/Plasma, Pre-UV",90.5 µM
same,Amotosalen concentration,"[1]; 90 μM, Plasma, Post-UV",4.0 µM
same,Amotosalen concentration,"[1]; 90 μM, Plasma, Pre-UV",89.7 µM
same,Amotosalen concentration,"[1]; 110 μM, PAS/Plasma, Post-UV",1.2 µM
same,Amotosalen concentration,"[1]; 110 μM, PAS/Plasma, Pre-UV",120.7 µM
same,Amotosalen concentration,"[1]; 110 μM, Plasma, Post-UV",5.5 µM
same,Amotosalen concentration,"[1]; 110 μM, Plasma, Pre-UV",105.8 µM
